This note sets out measurements from patent publication US10683293B2, “Optionally fused heterocyclyl-substituted derivatives of pyrimidine useful for the treatment of inflammatory, metabolic, oncologic and autoimmune diseases” (NUEVOLUTION A/S, priority 2014, dated 2020).

For assay [1], the target named is T1, human RORγt (Ligand Binding Domain) (Homo sapiens, UniProt P51449).
T1 construct: purchased Crelux (Planegg, Germany) batch no PC5032-1
T1 sequence (P51449 269-508 limits assumed): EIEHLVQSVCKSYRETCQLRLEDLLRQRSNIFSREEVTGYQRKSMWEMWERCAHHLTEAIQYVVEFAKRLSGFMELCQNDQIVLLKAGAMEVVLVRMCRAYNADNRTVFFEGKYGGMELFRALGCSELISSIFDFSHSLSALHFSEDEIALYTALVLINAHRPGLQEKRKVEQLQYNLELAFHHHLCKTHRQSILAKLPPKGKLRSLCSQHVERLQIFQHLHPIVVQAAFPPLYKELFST
Briefly: Fluorescence Polarization (FP) Assay. The conditions noted are these: 100 nM human RORγt LBD, 25 nM TAMRA probe, values are activity range bounds. The method in brief: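 In vitro fluorescence polarization binding assay on the RORγt ligand-binding pocket. A TAMRA-labelled RORγt ligand probe (MW 910 g/mol) was used, with DMSO as negative control.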
(In fluorescence polarisation assays a small probe gives low polarisation when free and higher when bound to something large.)

Assay [2] deals with T2, ligand binding domain of human RORγ (Homo sapiens, UniProt P51449).
T2 construct: host or cells: HEK293t
T2 sequence (P51449 269-508 limits assumed): T1 sequence (P51449 269-508 limits assumed)
Briefly: RORγ Reporter Assay (Gal4). The assay is classed as cell-based. The conditions noted are these: for inhibition at 1 µM: HEK-293T, 1 μM test compound, HEK293t RORγ reporter cells, 24 hour, read-out: Gal4 activity range @ 1 μM (% inhibition); for Gal4 activity range @ 0.1 μM (% inhibition): RORγ Reporter Assay (Gal4), HEK293t reporter cells, compound at 0.1 μM, values are activity range bounds. The method in brief:
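HEK293t cells expressing Gal4 DBD–human RORγ LBD hybrid with Gal4-UAS firefly luciferase reporter; compounds at final 1,000 nM and 100 nM (0.1% DMSO), triplicate, medium with 10% charcoal-stripped FBS, 24 h at 37 °C. Luminescence read; percent reduction of RORγ activity calculated versus vehicle-only wells.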

By IC50 is commonly meant the midpoint of a concentration-inhibition curve. Read a high IC50 as weaker potency. For orientation: inhibition means the relative decrease from the control value, in per cent. Take `C[S+]([O-])c1ccc(CNc2ncnc(N(Cc3ccc(C(F)(F)F)cc3)C3CC3)c2F)cc1` (stereo not drawn) [Example A76, N4-cyclopropyl-5-fluoro-N6-[(4-methylsulfinylphenyl)methyl]-N4-[[4-(trifluoromethyl)phenyl]methyl] pyrimidine-4,6-diamine]: the IC50 in assay [1] was < 500 nM. For the same molecule, in assay [2], the inhibition at 1 µM was > 80% and the “Gal4 activity range @ 0.1 μM (% inhibition)” value is >80 % inhibition.

In the case of `N#CC[C@H]1CC[C@H](CNc2ncnc(N(Cc3ccc(C(F)(F)F)cc3)C3CC3)c2F)CC1` [Example A62, 2-[4-[[[6-[cyclopropyl-[[4-(trifluoromethyl)phenyl]methyl]amino]-5-fluoro-pyrimidin-4-yl]amino]methyl]cyclohexyl] acetonitrile], the IC50 in assay [1] was < 500 nM. Further, in assay [2], the inhibition at 1 µM is > 80% and the “Gal4 activity range @ 0.1 μM (% inhibition)” value was >80 % inhibition.

With `NC(=O)Cc1ccc(CNc2ncnc(N(Cc3cccc(C(F)(F)F)n3)C3CC3)c2F)cc1` [Example A176, 2-[4-[[[6-[cyclopropyl-[[6-(trifluoromethyl)-2-pyridyl]methyl]amino]-5-fluoro-pyrimidin-4-yl]amino]methyl]phenyl]acetamide], the IC50 in assay [1] is < 500 nM. Moreover, in assay [2], the inhibition at 1 µM is > 50% and the “Gal4 activity range @ 0.1 μM (% inhibition)” value is recorded as >0 % inhibition.

`CN(C)CCNC(=O)CC1(CNc2ncnc(N(Cc3ccc(C(F)(F)F)cc3)C3CC3)c2F)CCOCC1` [Example A151, 2-[4-[[[6-[cyclopropyl-[[4-(trifluoromethyl)phenyl]methyl]amino]-5-fluoro-pyrimidin-4-yl]amino]methyl]tetrahydropyran-4-yl]-N-(2-dimethylaminoethyl)acetamide]: the IC50 in assay [1] is < 1000 nM. In addition, in assay [2], the inhibition at 1 µM is > 50% and the “Gal4 activity range @ 0.1 μM (% inhibition)” value is recorded as >0 % inhibition.

In the case of `O=S1(=O)CCC(O)(CNc2ncnc(N(Cc3ccc(C(F)(F)F)cc3)C3CC3)c2F)CC1` [Example A8, 4-[[[6-[cyclopropyl-[[4-(trifluoromethyl)phenyl]methyl]amino]-5-fluoro-pyrimidin-4-yl]amino]methyl]-1,1-dioxo-thian-4-ol], in assay [1], the IC50 was < 500 nM. In assay [2], the inhibition at 1 µM was > 80% and the “Gal4 activity range @ 0.1 μM (% inhibition)” value is given as >50 % inhibition.

Turning to `Cc1nc(C)c(C(C)N(C)c2ncnc(NCc3ccc(CC(N)=O)cc3)c2F)s1` (stereo not drawn) [Example A125, 2-[4-[[[6-[1-(2,4-dimethylthiazol-5-yl)ethyl-methyl-amino]-5-fluoro-pyrimidin-4-yl]amino]methyl]phenyl]acetamide], the IC50 in assay [1] was < 500 nM. In addition, in assay [2], the inhibition at 1 µM was > 50% and the “Gal4 activity range @ 0.1 μM (% inhibition)” value was >0 % inhibition.

Regarding `NC(=O)CC1CC(CNc2ncnc(N(Cc3ccc(C(F)(F)F)cc3)C3CC3)c2F)C1` (stereo not drawn) [Example A95, 2-[3-[[[6-[cyclopropyl-[[4-(trifluoromethyl)phenyl]methyl]amino]-5-fluoro-pyrimidin-4-yl]amino]methyl]cyclobutyl] acetamide], in assay [1], the IC50 was < 1000 nM. In assay [2], the inhibition at 1 µM is > 80% and the “Gal4 activity range @ 0.1 μM (% inhibition)” value is listed as >20 % inhibition.

`CC(c1ccc(C(F)(F)F)cc1)N(c1ncnc(NCc2ccc(CC(N)=O)cc2)c1F)C1CC1` (stereo not drawn) [Example A3, 2-[4-[[[6-[cyclopropyl-[1-[4-(trifluoromethyl)phenyl]ethyl]amino]-5-fluoro-pyrimidin-4-yl]amino]methyl]phenyl]acetamide]: the IC50 in assay [1] was < 500 nM. Moreover, in assay [2], the inhibition at 1 µM was > 80% and the “Gal4 activity range @ 0.1 μM (% inhibition)” value is on record as >50 % inhibition.

Consider `CC(c1ccc(C(F)(F)F)nc1)N(c1ncnc(NCc2ccc(CC(N)=O)cc2)c1F)C1CC1` (stereo not drawn) [Example A103, 2-[4-[[[6-[cyclopropyl-[1-[6-(trifluoromethyl)-3-pyridyl]ethyl]amino]-5-fluoro-pyrimidin-4-yl]amino]methyl]phenyl]acetamide], for which the IC50 in assay [1] was < 1000 nM. In addition, in assay [2], the inhibition at 1 µM is > 80% and the “Gal4 activity range @ 0.1 μM (% inhibition)” value is given as >0 % inhibition.

On to `NC(=O)Cc1ccc(CNc2ncnc(N(Cc3ccc(C(F)F)nc3)C3CC3)c2F)cc1` [Example A179, 2-[4-[[[6-[cyclopropyl-[[6-(difluoromethyl)-3-pyridyl]methyl]amino]-5-fluoro-pyrimidin-4-yl]amino]methyl]phenyl]acetamide], for which the IC50 in assay [1] is < 500 nM. In addition, in assay [2], the inhibition at 1 µM was > 80% and the “Gal4 activity range @ 0.1 μM (% inhibition)” value is recorded as >20 % inhibition.

Turning to `CN(Cc1cccc(-n2cccn2)c1)c1ncnc(NCC2CCN(S(C)(=O)=O)CC2)c1F` [Example A143, 5-fluoro-N6-methyl-N4-[(1-methylsulfonyl-4-piperidyl)methyl]-N6-[(3-pyrazol-1-ylphenyl)methyl]pyrimidine-4,6-diamine], the IC50 in assay [1] is < 500 nM. For the same molecule, in assay [2], the inhibition at 1 µM was > 80% and the “Gal4 activity range @ 0.1 μM (% inhibition)” value was >20 % inhibition.

For `O=S(=O)(Nc1ccc(CNc2ncnc(N(Cc3ccc(C(F)(F)F)cc3)C3CC3)c2F)cc1)C(F)(F)F` [Example A60, N-[4-[[[6-[cyclopropyl-[[4-(trifluoromethyl)phenyl]methyl]amino]-5-fluoro-pyrimidin-4-yl]amino]methyl]phenyl]-1,1,1-trifluoro-methanesulfonamide], the IC50 in assay [1] is < 500 nM. In assay [2], the inhibition at 1 µM was > 80% and the “Gal4 activity range @ 0.1 μM (% inhibition)” value is listed as >0 % inhibition.

`NC(=O)Cc1ccc(CNc2ncnc(N(Cc3ccc(OC(F)(F)F)cc3)C3CC3)c2F)cc1` [Example A6, 2-[4-[[[6-[cyclopropyl-[[4-(trifluoromethoxy)phenyl]methyl]amino]-5-fluoro-pyrimidin-4-yl]amino]methyl]phenyl]acetamide]: in assay [1], the IC50 is < 500 nM. In assay [2], the inhibition at 1 µM is > 80% and the “Gal4 activity range @ 0.1 μM (% inhibition)” value is given as >80 % inhibition.

As to `CN(Cc1cccc(-n2cccn2)c1)c1ncnc(NC[C@H]2CC[C@H](NS(=O)(=O)C(F)(F)F)CC2)c1F` [Example A142, 1,1,1-trifluoro-N-[4-[[[5-fluoro-6-[methyl-[(3-pyrazol-1-ylphenyl)methyl]amino]pyrimidin-4-yl]amino]methyl]cyclohexyl] methanesulfonamide], the IC50 in assay [1] is < 500 nM. Further, in assay [2], the inhibition at 1 µM was > 50% and the “Gal4 activity range @ 0.1 μM (% inhibition)” value is on record as >0 % inhibition.

On to `O=S(=O)(CC(F)(F)F)NC1CCC(CNc2ncnc(N(Cc3ccc(C(F)(F)F)cc3)C3CC3)c2F)CC1` (stereo not drawn) [x, N-[4-[[[6-[cyclopropyl-[[4-(trifluoromethyl)phenyl]methyl]amino]-5-fluoro-pyrimidin-4-yl]amino]methyl]cyclohexyl]-2,2,2-trifluoro-ethanesulfonamide], for which, in assay [1], the IC50 is < 500 nM. In assay [2], the inhibition at 1 µM is > 50% and the “Gal4 activity range @ 0.1 μM (% inhibition)” value is listed as >20 % inhibition.

In the case of `NC(=O)Cc1ccc(CNc2ncnc(N(C3CC3)C(c3ccc(C(F)(F)F)cc3)C3CCC3)c2F)cc1` (stereo not drawn) [Example A17, 2-[4-[[[6-[[cyclobutyl-[4-(trifluoromethyl)phenyl]methyl]-cyclopropyl-amino]-5-fluoro-pyrimidin-4-yl]amino]methyl]phenyl]acetamide], in assay [1], the IC50 was < 2000 nM. Moreover, in assay [2], the inhibition at 1 µM was > 50% and the “Gal4 activity range @ 0.1 μM (% inhibition)” value is recorded as >20 % inhibition.

In the case of `CCOc1ccc(CN(c2ncnc(NCc3ccc(CC(N)=O)cc3)c2F)C2CC2)cc1` [Example A54, 2-[4-[[[6-[cyclopropyl-[(4-ethoxyphenyl)methyl]amino]-5-fluoro-pyrimidin-4-yl]amino]methyl]phenyl]acetamide], in assay [1], the IC50 is < 500 nM. In assay [2], the inhibition at 1 µM is > 80% and the “Gal4 activity range @ 0.1 μM (% inhibition)” value is on record as >50 % inhibition.

As for `OC1(CNc2ncnc(N(Cc3ccc(C(F)(F)F)cc3)C3CC3)c2F)CCOC1` (stereo not drawn) [Example A5, 3-[[[6-[cyclopropyl-[[4-(trifluoromethyl)phenyl]methyl]amino]-5-fluoro-pyrimidin-4-yl]amino]methyl]tetrahydrofuran-3-ol], the IC50 in assay [1] is < 1000 nM. In assay [2], the inhibition at 1 µM is > 80% and the “Gal4 activity range @ 0.1 μM (% inhibition)” value was >20 % inhibition.

Regarding `Cc1ccc(CNc2ncnc(N(Cc3ccc(C(F)(F)F)cc3)C3CC3)c2F)cn1` [Example A1, N4-cyclopropyl-5-fluoro-N6-[(6-methyl-3-pyridyl)methyl]-N4-[[4-(trifluoromethyl)phenyl]methyl] pyrimidine-4,6-diamine], the IC50 in assay [1] is < 1000 nM. Moreover, in assay [2], the inhibition at 1 µM was > 80% and the “Gal4 activity range @ 0.1 μM (% inhibition)” value is reported as >20 % inhibition.

As to `CS(=O)(=O)c1ccc(CNc2ncnc(N(Cc3ccc(C(F)(F)F)cc3)C3CC3)c2F)cn1` [Example A89, N6-cyclopropyl-5-fluoro-N4-[(6-methylsulfonyl-3-pyridyl)methyl]-N6-[[4-(trifluoromethyl)phenyl]methyl] pyrimidine-4,6-diamine], in assay [1], the IC50 was < 500 nM. For the same molecule, in assay [2], the inhibition at 1 µM is > 80% and the “Gal4 activity range @ 0.1 μM (% inhibition)” value was >80 % inhibition.
